What was measured:
ZIKV = conditions: i.v. peptide 2 h after i.v. ZIKV 10^6 PFU/mouse, qPCR
Description: At 4, 8, and 3 days post ZIKV inoculation, C57BL/6J mice, Ifnar1^−/− mice, and pregnant C57BL/6J mice were sacrificed, respectively. Tissues and fetal mice were collected for testing ZIKV RNA by qPCR. ns, not significant, ∗p < 0.05, ∗∗p < 0.01, and ∗∗∗p < 0.001. Hc-CATH, a cathelicidin antimicrobial peptide identified from the sea snake Hydrophis cyanocinctus; PFU, plaque-forming unit; qPCR, quantitative PCR; ZIKV, Zika virus.
To evaluate the therapeutic efficacy of Hc-CATH against ZIKV infection, C57BL/6J mice, Ifnar1^−/− mice, and pregnant C57BL/6J mice were intravenously administrated with Hc-CATH at 2 h after intravenous injection of ZIKV (10^6 PFU/mouse). C57BL/6J mice, Ifnar1^−/− mice, and pregnant C57BL/6J mice were sacrificed at 4, 8, and 3 days post ZIKV inoculation, respectively. Tissues and fetal mice were collected for testing ZIKV RNA level by qPCR.

AXL = AXL level in Vero cells (Western blot, immunofluorescence); format: cell-based, Chlorocebus aethiops
Method: Figure 3 Hc-CATH downregulates AXL in Vero cell.A, schematic diagram of B and C. B, Vero cells were seeded in 24-well plates (5 × 10^4 cells/well) and cultured in DMEM containing 2% FBS. Hc-CATH (1.25, 2.5, and 5 μM), AC5 (2.5 μM), LL-37 (2.5 μM), or same volume of PBS (peptide solvent) was added to cells. After culture at 37 °C for 6, 12, and 24 h, the levels of ZIKV entry factors, including AXL, TYRO3, and TIM-1, were tested by Western blot, respectively. C, Vero cells were seeded in 8-well cover slip chambers (5 × 10^4 cells/well) and cultured in DMEM containing 2% FBS. Hc-CATH (1.25, 2.5, and 5 μM), AC5 (2.5 μM), LL-37 (2.5 μM), or same volume of PBS (peptide solvent) was added to cells. After culture at 37 °C for 24 h, the level of AXL was tested by immunofluorescence staining. The scale bar represents 50 μm. D, schematic diagram of E. E, Vero cells were seeded in 24-well plates (5 × 10^4 cells/well) and cultured in DMEM containing 2% FBS. Hc-CATH (1.25, 2.5, and 5 μM), AC5 (2.5 μM), LL-37 (2.5 μM), or same volume of PBS (peptide solvent) was added to cells and incubated at 37 °C for 2 h. […] Ratio of AXL to β-actin was analyzed by ImageJ.
Vero cells were incubated with Hc-CATH (1.25, 2.5, and 5 μM), AC5 (2.5 μM), LL-37 (2.5 μM), or PBS (solvent of peptide). […] The levels of ZIKV entry factors, including AXL, TYRO3, and TIM-1, were detected by WB analysis. […]

[1] = cited from earlier work
Description: Antimicrobial peptides (AMPs), also called host defense peptides, are a group of relatively small cationic peptides. They are an important part of the innate immune system and play an important role in fighting against bacterial infection ([26]). Recently, more and more studies have shown that AMPs can also exert antiviral effects by inhibiting virus adsorption, disrupting virus envelope, and regulating host antiviral immune response ([27], [28], [29]).

Question: What does the source list for “KFFKRLLKSVRRAVKKFRKKPRLIGLSTLL [Hc-CATH]”?
Answer: ZIKV replication in C57BL/6J mice, therapeutic (ZIKV; 4 days, tissue ZIKV RNA): significantly attenuated ZIKV replication; ZIKV replication in Ifnar1−/− mice, therapeutic (ZIKV; 8 days, tissue ZIKV RNA): significantly attenuated ZIKV replication; ZIKV replication in fetal placenta and fetal mice, therapeutic (ZIKV; pregnant C57BL/6J mice, 3 days): significantly attenuated ZIKV replication; level of AXL in Vero cells (AXL; 1.25, 2.5, and 5 μM, 24 h, confirmed by immunofluorescence, relative to PBS): reduced the level of AXL; level of AXL in Vero cells upon ZIKV infection (AXL; peptide 2 h, then ZIKV MOI = 1, 24 h post Hc-CATH addition): decreased the level of AXL; cytotoxicity [1]: low cytotoxicity; stability [1]: high stability
